According to PubChem BioAssay (NCI):
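Here, GI50 denotes the concentration required for 50% inhibition of growth. Definition used: TGI = concentration required for complete inhibition of growth.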

Assays:
Experiment in all cases: DTP human tumour cell line panel, 384-well format
OVCAR-8 ovarian = system: OVCAR-8 ovarian
DU-145 prostate = system: DU-145 prostate
COLO 205 colon = system: COLO 205 colon
MDA-MB-468 breast = system: MDA-MB-468 breast
SF-295 CNS = system: SF-295 CNS
UACC-62 melanoma = system: UACC-62 melanoma
UO-31 renal = system: UO-31 renal
SW-620 colon = system: SW-620 colon
HS 578T breast = system: HS 578T breast
UACC-257 melanoma = system: UACC-257 melanoma
K-562 leukemia = system: K-562 leukemia
MALME-3M melanoma = system: MALME-3M melanoma
OVCAR-5 ovarian = system: OVCAR-5 ovarian
A549 NSCLC = system: A549 NSCLC
HT29 colon = system: HT29 colon
SNB-19 CNS = system: SNB-19 CNS
HCC-2998 colon = system: HCC-2998 colon
NCI-H322M lung = system: NCI-H322M lung
NCI-H522 lung = system: NCI-H522 lung
RXF 393 renal = system: RXF 393 renal
SK-OV-3 ovarian = system: SK-OV-3 ovarian
OVCAR-3 ovarian = system: OVCAR-3 ovarian
PC-3 prostate = system: PC-3 prostate
OVCAR-4 ovarian = system: OVCAR-4 ovarian
SK-MEL-28 melanoma = system: SK-MEL-28 melanoma
NCI-H23 lung = system: NCI-H23 lung
HOP-62 NSCLC = system: HOP-62 NSCLC
MDA-MB-435 melanoma = system: MDA-MB-435 melanoma
CAKI-1 renal = system: CAKI-1 renal
KM12 colon = system: KM12 colon
CCRF-CEM leukemia = system: CCRF-CEM leukemia
HL-60(TB) leukemia = system: HL-60(TB) leukemia
A498 renal = system: A498 renal
SK-MEL-2 melanoma = system: SK-MEL-2 melanoma
MCF7 breast = system: MCF7 breast
786-0 renal = system: 786-0 renal
LOX IMVI melanoma = system: LOX IMVI melanoma
TK-10 renal = system: TK-10 renal
NCI/ADR-RES ovarian = system: NCI/ADR-RES ovarian
NCI-H226 lung = system: NCI-H226 lung
U251 glioblastoma = system: U251 glioblastoma
T-47D breast = system: T-47D breast
SNB-75 CNS = system: SNB-75 CNS
HCT-116 colon = system: HCT-116 colon
MOLT-4 leukemia = system: MOLT-4 leukemia
SF-268 CNS = system: SF-268 CNS
HCT-15 colon = system: HCT-15 colon
SK-MEL-5 melanoma = system: SK-MEL-5 melanoma
ACHN renal = system: ACHN renal
SN12C renal = system: SN12C renal
RPMI-8226 leukemia = system: RPMI-8226 leukemia
SF-539 CNS = system: SF-539 CNS
BT-549 breast = system: BT-549 breast
M14 melanoma = system: M14 melanoma
IGROV1 ovarian = system: IGROV1 ovarian
MDA-MB-231 breast = system: MDA-MB-231 breast

`COc1c(OC[C@H](O)CN2CCOCC2)ccc2c3n(c(=NC(=O)c4cccnc4C)nc12)CCN3` gave a GI50 (OVCAR-8 ovarian) greater than 100 µM, a TGI (OVCAR-8 ovarian) greater than 100 µM and a GI50 (DU-145 prostate) greater than 100 µM. For the same compound, the TGI (DU-145 prostate) was greater than 100 µM, the GI50 (COLO 205 colon) was greater than 100 µM and the TGI (COLO 205 colon) was greater than 100 µM. It also gave a GI50 (MDA-MB-468 breast) of 439 nM, a TGI (MDA-MB-468 breast) greater than 100 µM and a GI50 (SF-295 CNS) greater than 100 µM. For the same compound, the TGI (SF-295 CNS) was greater than 100 µM, the GI50 (UACC-62 melanoma) was greater than 100 µM and the TGI (UACC-62 melanoma) was greater than 100 µM. The GI50 (UO-31 renal) was greater than 100 µM, the TGI (UO-31 renal) was greater than 100 µM and the GI50 (SW-620 colon) was greater than 100 µM. The TGI (SW-620 colon) was greater than 100 µM, the GI50 (HS 578T breast) was 3.51 µM and the TGI (HS 578T breast) was greater than 100 µM. The GI50 (UACC-257 melanoma) was greater than 100 µM, the TGI (UACC-257 melanoma) was greater than 100 µM and the GI50 (K-562 leukemia) was greater than 100 µM. For the same compound, the TGI (K-562 leukemia) was greater than 100 µM, the GI50 (MALME-3M melanoma) was greater than 100 µM and the TGI (MALME-3M melanoma) was greater than 100 µM. For the same compound, the GI50 (OVCAR-5 ovarian) was greater than 100 µM, the TGI (OVCAR-5 ovarian) was greater than 100 µM and the GI50 (A549 NSCLC) was greater than 100 µM. The TGI (A549 NSCLC) was greater than 100 µM, the GI50 (HT29 colon) was greater than 100 µM and the TGI (HT29 colon) was greater than 100 µM. It also gave a GI50 (SNB-19 CNS) greater than 100 µM, a TGI (SNB-19 CNS) greater than 100 µM and a GI50 (HCC-2998 colon) greater than 100 µM. It also gave a TGI (HCC-2998 colon) greater than 100 µM, a GI50 (NCI-H322M lung) of 67.1 µM and a TGI (NCI-H322M lung) greater than 100 µM. For the same compound, the GI50 (NCI-H522 lung) was greater than 100 µM, the TGI (NCI-H522 lung) was greater than 100 µM and the GI50 (RXF 393 renal) was greater than 100 µM. The TGI (RXF 393 renal) was greater than 100 µM, the GI50 (SK-OV-3 ovarian) was 413 nM and the TGI (SK-OV-3 ovarian) was greater than 100 µM. It also gave a GI50 (OVCAR-3 ovarian) greater than 100 µM, a TGI (OVCAR-3 ovarian) greater than 100 µM and a GI50 (PC-3 prostate) of 657 nM. For the same compound, the TGI (PC-3 prostate) was greater than 100 µM, the GI50 (OVCAR-4 ovarian) was greater than 100 µM and the TGI (OVCAR-4 ovarian) was greater than 100 µM. It also gave a GI50 (SK-MEL-28 melanoma) of 55.1 µM, a TGI (SK-MEL-28 melanoma) greater than 100 µM and a GI50 (NCI-H23 lung) greater than 100 µM. It also gave a TGI (NCI-H23 lung) greater than 100 µM, a GI50 (HOP-62 NSCLC) greater than 100 µM and a TGI (HOP-62 NSCLC) greater than 100 µM. It also gave a GI50 (MDA-MB-435 melanoma) greater than 100 µM, a TGI (MDA-MB-435 melanoma) greater than 100 µM and a GI50 (CAKI-1 renal) greater than 100 µM. It also gave a TGI (CAKI-1 renal) greater than 100 µM, a GI50 (KM12 colon) greater than 100 µM and a TGI (KM12 colon) greater than 100 µM. It also gave a GI50 (CCRF-CEM leukemia) of 4.36 µM, a TGI (CCRF-CEM leukemia) greater than 100 µM and a GI50 (HL-60(TB) leukemia) of 14.5 nM. The TGI (HL-60(TB) leukemia) was greater than 100 µM, the GI50 (A498 renal) was greater than 100 µM and the TGI (A498 renal) was greater than 100 µM. It also gave a GI50 (SK-MEL-2 melanoma) greater than 100 µM, a TGI (SK-MEL-2 melanoma) greater than 100 µM and a GI50 (MCF7 breast) of 87.9 nM. The TGI (MCF7 breast) was greater than 100 µM, the GI50 ([…]-0 renal) was greater than 100 µM and the TGI (786-0 renal) was greater than 100 µM. It also gave a GI50 (LOX IMVI melanoma) greater than 100 µM, a TGI (LOX IMVI melanoma) greater than 100 µM and a GI50 (TK-10 renal) of 2860 nM. The TGI (TK-10 renal) was greater than 100 µM, the GI50 (NCI/ADR-RES ovarian) was greater than 100 µM and the TGI (NCI/ADR-RES ovarian) was greater than 100 µM. The GI50 (NCI-H226 lung) was greater than 100 µM, the TGI (NCI-H226 lung) was greater than 100 µM and the GI50 (U251 glioblastoma) was greater than 100 µM. It also gave a TGI (U251 glioblastoma) greater than 100 µM, a GI50 (T-47D breast) of 44.6 nM and a TGI (T-47D breast) of 573 nM. For the same compound, the GI50 (SNB-75 CNS) was 124 nM, the TGI (SNB-75 CNS) was greater than 100 µM and the GI50 (HCT-116 colon) was greater than 100 µM. For the same compound, the TGI (HCT-116 colon) was greater than 100 µM, the GI50 (MOLT-4 leukemia) was 160 nM and the TGI (MOLT-4 leukemia) was greater than 100 µM. The GI50 (SF-268 CNS) was greater than 100 µM, the TGI (SF-268 CNS) was greater than 100 µM and the GI50 (HCT-15 colon) was greater than 100 µM. It also gave a TGI (HCT-15 colon) greater than 100 µM, a GI50 (SK-MEL-5 melanoma) greater than 100 µM and a TGI (SK-MEL-5 melanoma) greater than 100 µM. It also gave a GI50 (ACHN renal) greater than 100 µM, a TGI (ACHN renal) greater than 100 µM and a GI50 (SN12C renal) greater than 100 µM. The TGI (SN12C renal) was greater than 100 µM, the GI50 (RPMI-8226 leukemia) was greater than 100 µM and the TGI (RPMI-8226 leukemia) was greater than 100 µM. It also gave a GI50 (SF-539 CNS) greater than 100 µM, a TGI (SF-539 CNS) greater than 100 µM and a GI50 (BT-549 breast) of 38.6 µM. For the same compound, the TGI (BT-549 breast) was greater than 100 µM, the GI50 (M14 melanoma) was greater than 100 µM and the TGI (M14 melanoma) was greater than 100 µM. The GI50 (IGROV1 ovarian) was 111 nM, the TGI (IGROV1 ovarian) was greater than 100 µM and the GI50 (MDA-MB-231 breast) was greater than 100 µM. For the same compound, the TGI (MDA-MB-231 breast) was greater than 100 µM.
